Source: patent US20100197668A1, “1,2,3,4-TETRAHYDROPYRROLO[1,2-A]PYRAZINE-6-CARBOXAMIDE AND 2,3,4,5-TETRAHYDROPYRROLO[1,2-a][1,4]-DIAZEPINE-7-CARBOXAMIDE DERIVATIVES, PREPARATION AND THERAPEUTIC USE THEREOF” (SANOFI-AVENTIS, priority 2007, published 2010)
Structures can show the parent of a compound that is named as a salt.

Assays:
[1] = biological target: T1, purified recombinant form of human BACE1 aspartyl protease (Homo sapiens, UniProt P56817); assay: in vitro inhibition of β-secretase (BACE1) activity, cleavage of fluorogenic peptide substrate FS1 (FRET); type: biochemical; settings: recombinant human BACE1 10 nM, substrate FS1 5 μM, sodium acetate buffer pH 4.5, 37° C., 45 minutes; read-out: IC50 (concentration of product giving 50% inhibition of the enzyme activity)
T1 construct: hexahistidine (C); made in house; host or cells: Drosophila cells
T1 sequence (P56817 46-501): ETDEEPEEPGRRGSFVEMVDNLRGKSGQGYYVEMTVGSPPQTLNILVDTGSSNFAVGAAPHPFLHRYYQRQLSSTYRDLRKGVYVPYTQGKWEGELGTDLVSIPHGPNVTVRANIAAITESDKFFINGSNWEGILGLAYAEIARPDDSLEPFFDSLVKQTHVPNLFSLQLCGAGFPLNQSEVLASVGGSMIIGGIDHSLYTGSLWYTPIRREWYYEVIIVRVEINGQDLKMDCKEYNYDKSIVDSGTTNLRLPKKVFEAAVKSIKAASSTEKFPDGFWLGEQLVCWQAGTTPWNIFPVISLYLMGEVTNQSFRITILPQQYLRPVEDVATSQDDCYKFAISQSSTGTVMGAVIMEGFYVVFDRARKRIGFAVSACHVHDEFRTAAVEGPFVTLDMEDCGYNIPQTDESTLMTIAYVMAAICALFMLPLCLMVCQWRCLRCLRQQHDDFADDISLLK
Excerpt: The compounds according to the invention have been the subject of pharmacological tests enabling their inhibitory effect with respect to β-secretase activity to be determined.
The tests consisted in measuring the in vitro inhibition of the β-secretase activity by the compounds of the invention.
The β-secretase activity measured corresponds to that of a purified recombinant form of human BACE1 aspartyl protease (the latter comprising a hexahistidine tag at the C-terminal position) produced by expression in Drosophila cells. The purified enzyme is conditioned in TRIS buffer (18 mM) at pH 7.5 containing NaCl (0.45M), MnCl2 (0.9 mM), CaCl2 (0.9 mM), α-D-methylmannoside and 10% glycerol, and stored at −80° C. until use.
The BACE1 activity is measured from the cleavage of a fluorogenic peptide substrate, known as FS1, described originally by Ermolieff et Coll. (2000, Biochemistry, 39, 12450-12456), and based on the principle of fluorescence resonance energy transfer (FRET); the cleavage of the FS1 peptide is measured from the increase of the fluorescent signal emitted by the EDANS (or 5-[(2-aminoethyl)amino]-naphthalene-2-sulfonic acid) group.
The test is carried out in a 96-well microplate in order to determine the inhibition of the enzyme activity by the products of the invention. The substrate FS1 is solubilized to a concentration of 1 mM in 100% dimethylsulfoxide (DMSO) and stored at −20° C. until use. The dilutions of the products to be tested are prepared in DMSO starting from a 10 mM stock solution. The products of the invention, at final concentrations of 0.003 to 10 μM are incubated at 37° C. with the substrate FS1 (final concentration of 5 μM) and the purified enzyme (final concentration of 10 nM) in the sodium acetate buffer (0.1 M), pH 4.5 containing 0.02% of CHAPS detergent and […] for 45 minutes. […] When the incubation is finished, the fluorescence is measured in a spectrofluorimeter, at the excitation wavelength of 355 nm and emission wavelength of 509 nm. For each product concentration tested, the fluorescent signal is compared to the maximum signal obtained when the substrate FS1 is only incubated with the enzyme.
The inhibitory activity of the products of the invention is then evaluated by the measurement of the IC50 (concentration of product giving 50% inhibition of the enzyme activity) using a non-linear regression analysis (computer application software XLfit, IDBS™).

Row | SMILES | melting point | IC50 [1]
1 | CC(C)(C)OC(=O)N1CCn2c(C(=O)N[C@@H](Cc3ccccc3)[C@H](O)CNC3(c4cccc(C(F)(F)F)c4)CC3)cc(C(=O)O)c2C1 [Compound 2, 6-{[(1S,2R)-1-Benzyl-2-hydroxy-3-({1-[3-(trifluoromethyl)phenyl]cyclopropyl}amino)propyl]carbamoyl}-2-(tert-butoxycarbonyl)-1,2,3,4-tetrahydropyrrolo[1,2-a]pyrazine-8-carboxylic acid] | 134.5 °C | –
2 | CCCC(CCC)N1CCn2c(C(=O)N[C@@H](Cc3cc(F)cc(F)c3)[C@H](O)CNC3(c4cccc(C(F)(F)F)c4)CC3)ccc2C1=O.Cl [Compound 7, N-[(1S,2R)-1-(3,5-Difluorobenzyl)-2-hydroxy-3-({1-[3-(trifluoromethyl)-phenyl]cyclopropyl}amino)propyl]-1-oxo-2-(1-propylbutyl)-1,2,3,4-tetrahydropyrrolo[1,2-a]pyrazine-6-carboxamide hydrochloride (1:1)] | 183 °C | 480 nM
3 | CCCC(CCC)N1CCn2c(C(=O)N[C@@H](Cc3ccccc3)[C@H](O)CNC3(c4cccc(C(F)(F)F)c4)CC3)ccc2C1=O.Cl | 176 °C | –
4 | CCN(CC)C(=O)c1cc(C(=O)N[C@@H](Cc2ccccc2)[C@H](O)CNC2(c3cccc(C(F)(F)F)c3)CC2)n2c1CNCC2 (as salt: HCl) [Compound 5, 6-{(1S,2R)-1-benzyl-2-hydroxy-3-[1-(3-trifluoromethylphenyl)cyclopropylamino]propyl}-N-8,N-8-diethyl-1,2,3,4-tetrahydropyrrolo[1,2-a]pyrazine-6,8-dicarboxamide] | 143 °C | –
5 | COC(=O)c1cc(C(=O)N[C@@H](Cc2ccccc2)[C@H](O)CNC2(c3cccc(C(F)(F)F)c3)CC2)n2c1CN(C(=O)OC(C)(C)C)CC2 [Compound 1, 2-tert-Butyl 8-methyl 6-{[(1S,2R)-1-benzyl-2-hydroxy-3-({1-[3-(trifluoromethyl)phenyl]cyclopropyl}amino)propyl]carbamoyl}-3,4-dihydropyrrolo[1,2-a]pyrazine-2,8(1H)-dicarboxylate] | 136 °C | –
6 | CCCC(CCC)N1CCCn2c(C(=O)N[C@@H](Cc3ccccc3)[C@H](O)CNCc3cccc(C(F)(F)F)c3)ccc2C1=O [Compound 11, N-[(1S,2R)-1-Benzyl-2-hydroxy-3-{[3-(trifluoromethyl)benzyl]amino}propyl]-1-oxo-2-(1-propylbutyl)-2,3,4,5-tetrahydro-1H-pyrrolo[1,2-a][1,4]diazepine-7-carboxamide hydrochloride (1:1)] | – | 1400 nM
7 | CCN(CC)C(=O)c1cc(C(=O)N[C@@H](Cc2ccccc2)[C@H](O)CNC2(c3cccc(C(F)(F)F)c3)CC2)n2c1CNCC2 [Compound 5, 6-{(1S,2R)-1-benzyl-2-hydroxy-3-[1-(3-trifluoromethylphenyl)cyclopropylamino]propyl}-N-8,N-8-diethyl-1,2,3,4-tetrahydropyrrolo[1,2-a]pyrazine-6,8-dicarboxamide] | – | 310 nM
8 | CCCC(CCC)N1CCn2c(C(=O)N[C@@H](Cc3ccccc3)[C@H](O)CNCc3cccc(C(F)(F)F)c3)ccc2C1=O.Cl [Compound 9, N-[(1S,2R)-1-Benzyl-2-hydroxy-3-{[3-(trifluoromethyl)benzyl]amino}propyl]-1-oxo-2-(1-propylbutyl)-1,2,3,4-tetrahydropyrrolo[1,2-a]pyrazine-6-carboxamide hydrochloride (1:1)] | 168 °C | 370 nM
